# Laboratory results published in a melting point compilation (Tetko et al.; mined from patent text by program, amines drawn as free bases though some values may be those of a salt).
row,melting point,Structure (SMILES)
1,173 to 174 °C,CCN(CC)c1nc(C)nc(SC)c1NC(=O)CBr
2,121 to 125 °C,CN=C(NC#N)C1=CC(C)(COC)Oc2ccc([N+](=O)[O-])cc21 (stereo unspecified)
3,256 to 258 °C,CC(=O)N(c1nc2cc3nc(N(C(C)=O)N4CCN(C)CC4)sc3cc2s1)N1CCN(C)CC1
4,260 °C,Cc1cc(C2CCC2)n2nc(S(=O)(=O)Nc3c(Cl)cccc3Cl)nc2n1
5,168 to 171 °C,COC(=O)C=CN1CCN(c2cccc(-n3cnc4cc(-c5ccoc5)ccc43)c2)CC1
6,208 °C,O=C1c2ccccc2C(O)N1c1ccc2ncccc2n1 (stereo unspecified)
7,> 250 °C,O=C(O)c1cn(-c2cc(F)cc(C(F)(F)F)c2)cn1
8,132 to 134 °C,COc1ccccc1-c1cc(F)cc(OCc2ccc3c(-c4ccoc4)cc(C#N)nc3c2)c1
9,259 to 261 °C,CC1COc2c(F)c(F)cc3c(=O)[nH]c(=O)n1c23 (stereo unspecified)
10,105 to 106 °C,"Cc1ccc(S(=O)(=O)OCC(COC(=O)c2ccccc2)OS(=O)(=O)c2ccc(C)cc2)cc1 (single isomer, unassigned; (-))"
11,146 to 147 °C,c1ccc(CCc2n[nH]c(NCCCCOc3cccc(CN4CCCCC4)c3)n2)cc1
12,81 to 83 °C,CC(NC(=O)C(NC(=O)OCc1ccccc1)C(C)C)C(=O)NC(CC(=O)OC(C)(C)C)C(O)c1nc2ccccc2o1 (mixture of isomers)
13,163 to 164 °C,O=C(Oc1ccc([N+](=O)[O-])cc1)C(O)C(O)C(=O)Oc1ccc([N+](=O)[O-])cc1 (stereo unspecified)
14,117 °C,CC1(C)CC(=O)C(Cl)(Cl)C(Cl)C1Br (stereo unspecified)
15,191 to 194 °C,O=C1Cc2cccc(S(=O)c3ccc(Cl)cc3)c2N1 (stereo unspecified)
16,103 to 105 °C,Cn1nc(C(F)(F)F)c(C(=O)CC#N)c1Cl
17,84 to 87 °C,COC(=O)C(Br)c1nsc2ccc(-n3c(=O)cc(C(F)(F)F)n(C)c3=O)cc12 (stereo unspecified)
18,213 to 214 °C,CSN=C1C(=O)N2C(C(=O)OC(c3ccccc3)c3ccccc3)=C(CSc3nnnn3C)CSC12 (stereo unspecified)
19,177 to 179 °C,O=C1c2ccccc2C(=O)N1OCc1ccc2c(c1F)OC(c1ccccc1)(c1ccccc1)O2
20,109 to 111 °C,CN1CCN(C(=NNc2ccccc2Cl)c2ccccc2F)CC1
21,190 to 193 °C,Cc1cccc2ncc(C(=O)NC34CC5CC(CC(C5)C3)C4)c(=O)n12

row,melting point,Structure (SMILES)
1,168 to 170 °C,Fc1cc(F)c(-c2c(Cl)nc(-n3ccnc3)nc2NCC(F)(F)F)c(F)c1
2,208 to 210 °C,CN(C)CC(=O)N1c2ccccc2NC(=O)c2cncnc21
3,78 °C,COC(=O)c1ccc(C=C(CBr)C(=O)OC(C)(C)C)cc1
4,109 to 110 °C,Fc1ccc(CN2CCN(C3CC=C(c4ccc(F)cc4)CC3)CC2)cc1 (stereo unspecified)
5,209 to 211 °C,COc1ccc(/C=C/C(=O)Nc2ccccc2C(=O)O)cn1
6,158 to 169 °C,N=C(Cc1ccccc1)Nc1ncccc1OCc1ccccc1Br
7,198 °C,O=C(Nc1cccc(Br)c1)Oc1ccc2c(c1)CCCN2
8,135 to 137 °C,CNCC(=O)N1c2ccccc2N(C)S(=O)(=O)c2ccccc21
9,121 to 124 °C,CCc1nc2c(O)c(CCC(O)c3ccccc3)c(C(=O)N(C)C)cc2n1C (stereo unspecified)
10,230 °C,COc1cnc(CS(C)(=O)=O)nc1O
11,126 to 129 °C,CCCCCS(=O)(=O)NC(=O)CCc1cc(OC(C)C)nn1Cc1ccc(Cl)cc1Cl
12,145 °C,CN(c1ccccc1)c1cc(NCc2ccco2)c(C(=O)O)cc1S(N)(=O)=O
13,236 to 238 °C,CS(=O)(=O)c1ccc(NC(=O)c2ccccc2SSc2ccccc2C(=O)Nc2ccc(S(C)(=O)=O)cc2)cc1
14,112 °C,CC(=O)c1ccc(Br)cn1
15,240 to 245 °C,COc1cc2c(cc1OC)[C@@H]1CN(C)CC[C@@H]1N=C2c1ccc(NC(=O)c2ccccc2)cc1 (relative stereo)
16,146 to 147 °C,C=CCNc1nc(-c2ccccc2)c(-c2ccc(=O)n(CC=C)n2)s1
17,84 to 85 °C,CCCCC(=O)c1c(O)oc(=O)c(C(=O)CCCC)c1O
18,164 to 167 °C,N#Cc1c(S(=O)(=O)C(F)(F)C(F)Cl)[nH]c2ccccc12 (stereo unspecified)
19,144 to 145 °C,NC(Cc1nc2cc(F)c(F)cc2nc1CP(=O)(O)O)C(=O)O (stereo unspecified)
20,119 °C,CCCOc1cc(-n2c(=O)cc(C(F)(F)F)n(C)c2=O)c(F)cc1Br

# Further lines, the compound ahead of its results:
row,Structure (SMILES),melting point
1,COC[C@H]1C[C@H]1c1ccccc1 (relative stereo),46 to 50 °C
2,CC(C)(C)COc1ccc(NC(=O)c2cc3ccccc3n2CC(=O)O)cc1C#N,194 to 195 °C
3,COc1cccc(Cc2nc3c(N)ncnc3[nH]2)c1,163 to 165 °C
4,Cc1nnc2n1-c1sc(C(N)=O)cc1C(c1ccccc1Cl)=NC2,230 to 232 °C
5,COC(=O)C(=COCF)c1ccccc1CBr,73 to 76 °C
6,COc1ccc(C=Cc2ccncc2)cc1,128 to 130 °C
7,O=C(C=C(O)c1ccccc1O)c1cn(S(=O)(=O)c2ccccc2)c2ccc(Cl)cc12,241 to 244 °C
8,Nc1cc(Br)nc(C(=O)O)c1Cl,182 to 183 °C
9,COC(=O)c1cccc2[nH]c(=O)c(C(=O)c3ccccc3)c(O)c12,263 to 265 °C
10,COC(=O)c1ncc(C(=O)NS(=O)(=O)c2ccccc2)cc1OC,160 to 163 °C
11,O=C(O)c1ccc2c(c1)S(=O)(=O)c1ccccc1-2,312 °C
12,CCCCOc1cc(/C=C(\OCC)C(=O)O)ccc1OCCc1ccc(N(C)S(=O)(=O)CCCC)cc1,144 °C
13,O=C(NCc1ccc(C(F)(F)F)c(F)c1)Nc1cccc2[nH]ccc12,198 °C
14,CC(=O)Nc1c(-c2ccccc2C)nc2c3ccccc3ccn12,> 270 °C
15,CN1CCC(Sc2[nH]nc(-c3ccc(Cl)cc3)c2-c2ccncc2)CC1,228 °C
16,Cc1c(Br)c(O)c(Br)c(C)c1-c1c(C)c(Br)c(O)c(Br)c1C,242 to 245 °C
17,Clc1nc2ccccc2nc1Nc1cccc2ccccc12,157 to 159 °C
18,c1ccc(CSc2nc3cc4c(cc3[nH]2)OCCO4)nc1,155 to 156 °C
19,O=C(C=Cc1ccc(-c2ccc(Cl)cc2)cc1)NC(Cc1ccc(OCc2ccccc2)cc1)C(=O)O (stereo unspecified),253 to 254 °C
20,COC(=O)c1c(-c2cc(OC)c(OC)c(OC)c2)c2cc(OC)c(CC#N)cc2c(=O)n1-c1ccc(NC(=O)OC(C)(C)C)cc1,136 to 138 °C
21,COc1ccc(C=CC(=O)Nc2cnc3c(C)cc(C)cc3c2-c2ccccc2Cl)c(OC)c1OC,200 to 201 °C
22,Cn1cncc1C(O)(c1cccc(I)c1)c1ccc2c(c1)c(-c1cccc(Cl)c1)cc(=O)n2C (stereo unspecified),226 °C
23,O=C1NCCN=C1c1ccc([N+](=O)[O-])cc1,191 to 192 °C
24,O=c1nc(-c2cccc(CN3CCN(c4ccc(F)cc4)CC3)n2)sc2ccccc12,156 to 157 °C
25,CC(C)[C@H](CO)Cc1ccc(C(C)(C)C)cc1,49 to 51 °C
26,Cc1nc(N)c2nc(CO)n(NC3CCC3)c2c1C,211 to 213 °C
27,CC12CC(=O)C3C(C=CC4=CC(=O)CCC43C)C1CCC2=O (stereo unspecified),237 °C
28,O=C(O)Cc1ccc(OCc2ccccc2)c(OCCc2ccccc2)c1,110 to 112 °C

row,Structure (SMILES),melting point
1,COc1ccccc1Cc1c(N)nc(SCCCN2CCN(C(C)=O)CC2)nc1N,208 to 209 °C
2,CC(C)N(C[C@@H](O)[C@@H](C(=O)[C@H](CC(N)=O)NC(=O)c1ccccc1)C(N)c1ccccc1)NC(=O)OC(C)(C)C (stereo partly specified),182 to 185 °C
3,Nc1ccc(CN2C(=O)[C@H]3CCC[C@H]3N(C(=O)CN3C(=O)c4ccccc4C3=O)c3ccccc32)cc1 (relative stereo),286 to 289 °C
4,O=C1Cc2cc(OCc3ccc4ccccc4n3)ccc2N1c1c(Cl)cccc1Cl,147 to 148 °C
5,Cc1cccc(N2CCN(C(=O)OC(C)(C)C)CC2)c1[N+](=O)[O-],101 to 102 °C
6,Cc1nc(N2CCc3ccccc3CC2)c(C#N)c(=O)[nH]1,> 200 °C
7,Nc1nccnc1C(=O)Nc1ccccc1Cl,177 to 179 °C
8,Nc1nc(-c2c(-c3ccccc3)c3ccccc3[nH]c2=O)cs1,> 220 °C
9,Cn1c(C(=O)N(Cc2cc(C(F)(F)F)cc(C(F)(F)F)c2)Cc2cc(C(F)(F)F)cc(C(F)(F)F)c2)c(-c2ccc(F)cc2)c2cccnc2c1=O,252 to 254 °C
10,CC1(C)SCN(CCCCN2CCN(c3nc4ccccc4s3)CC2)C1=O,99.5 to 100 °C
11,N#Cc1cccc(NC(=O)CN2CCN(c3ncccc3C#N)CC2)c1,166 to 167 °C
12,C#CCn1c(=O)n(CCN2CCN(c3ccccc3OC)CC2)c(=O)c2cscc21,142 to 143 °C
13,CCOc1ccc(OC)c([N+](=O)[O-])c1,33 to 36 °C
14,CCOC(=O)COc1ccccc1-c1cc(C#N)c(=O)[nH]c1C,188 to 190 °C
15,O=[N+]([O-])c1cnc2ccc(SC(F)F)cc2c1-c1ccccc1,101 to 103 °C
16,COC(=O)[C@@H]1CCCN1S(=O)(=O)c1ccc(Cl)c(COc2cccc3cc(C(F)(F)F)c(C)nc23)c1Cl,165 to 167 °C
17,CC(C)(O)Cn1c(CCC2(C)OCCO2)nc2c(N)nc3ccccc3c21,231 to 233 °C
18,COc1cc(N(Cc2cccnc2)c2ccc(C(=O)O)cc2)ccc1OC(F)F,184 to 185 °C
19,CCCC(=O)NC[C@@H]1C[C@H]1c1cc(OC)c(Br)cc1Br (relative stereo),114 to 115 °C
20,CC1=C(C(=O)CS(=O)(=O)NC(C)C)C(c2cccc([N+](=O)[O-])c2)C(C(=O)OC(C)C)=C(C)N1 (stereo unspecified),119 to 121 °C
21,O=S1CCOCC1c1cccnc1 (stereo unspecified),74 to 76 °C
22,Nc1ncc(Cl)nc1Cl,117 to 118 °C
23,CC(C)(C)OC(=O)N[C@@H](Cc1ccc(O)cc1)C(=O)NCCCN1CCN(CCCNc2cccc3c2C(=O)c2ccccc2C3=O)CC1,102 °C
24,COc1cc(OC)c(C2=CCN(C)CC2)c(O)c1C(C)=O,143 to 144 °C
25,Cc1ccc2cccc(OCc3c(Cl)ccc(C4OCCO4)c3Cl)c2n1,82 to 85 °C
26,COc1ccc(CCN2CCc3cc(O)c(OC)cc3C2)cc1,170 to 171 °C
27,CONC(=O)c1[nH]c(C)c(-c2nc3ccc(C(=O)c4ccccc4)cc3[nH]2)c1C,203 to 205 °C
